In EP3114111B1, “BICYCLIC PYRROLE DERIVATIVES USEFUL AS AGONISTS OF GPR120” (Janssen Pharmaceutica NV, priority 2014, dated 2015):

What was measured:
[1] = test system: C57bl6 Mouse; assay: GPR120 C57bl6 Mouse IPGTT; format: in vivo, C57bl/6J Mice
Experimental: Male, C57bl/6J Mice were ordered in at 8 weeks of age from Jackson Labs. Individual mice weighed anywhere in the range of 25-30 grams on study day. The mice were fasted, with removal of food occurring at 7am on the morning of the study. Animals were moved into the room at 10:00am, to give them time to acclimate. Glucose (insulin syringes) was drawn up either the night before or the morning of the study. Glucose was dosed (IP) at 1.5g/kg at 7.5ml/kg (20% glucose straight TEKNOVA, 250ml sterile bottle w/ catalogue number G0525). Test compounds were kept spinning and were only drawn into the syringes prior to study commencement. Animals were bled via tail snip to determine basal glucose levels prior to dosing of treatments. An Ascensia BREEZE Blood Glucose Monitoring System by Bayer (using unique 10-test disks) was used for determining glucose levels. The bleeds started at approximately 12:45pm and dosing started, at 1-minute intervals, immediately after. All groups were dosed 30 minutes prior to glucose administration at a dose volume of 10ml/kg (the dose volume was calculated separately for each individual animal). Thirty minutes after the first dose animals were bled again for a second baseline, or T=0, and immediately dosed with glucose via an i.p. injection. The exact dose volume for glucose was also calculated separately for each individual animal. Glucose measurements were taken at -30min prior to compound dose, at t=0 (immediately prior to glucose dose), and at 15, 30, 45, 60, 90min post glucose dose.
Glucose values were entered into an Excel sheet and graphed in GraphPad Prism. The following were calculated from Prism: Change from -30 to 0 BSLN Glucose, Raw Glucose AUC -30 to 90min, Delta Glucose AUC -30 to 90min, Raw Glucose AUC 0 to 90min, Delta Glucose AUC 0 to 90min.

[2] = test system: DIO Mice; assay: GPR120 DIO Mice OGTT Screening; format: in vivo, C57BI6 mice; settings: for DIO Lowering Glucose AUC: DIO mice OGTT; for Lowering Glucose AUC: DIO Dose Response
Experimental: 18-22 week old, C57BI6 mice on a high fat diet (60% HFD) for 12-16 weeks (ave. body weight ∼ 37-41g) were fasted for 6hr, with removal of food occurring at 7 am on the morning of the study. The animals were sorted into treatment groups the day before the study by body weight. Animals outside the bounds of ∼30-50g were left out of the study. The animals had been handled and shammed a total of 5-8 days (1-3 days immediately prior to the study). Glucose (in 1ml syringes) was drawn up the morning of the study. Test compounds were kept spinning and were only drawn into 1ml syringes prior to study commencement. Animals were bled via tail snip to determine basal glucose levels prior to dosing of treatments. An Ascensia BREEZE Blood Glucose Monitoring System by Bayer was used for determining glucose levels.
Animals were moved into the testing room at ∼9-11am, to yield them time to acclimate. The bleeds and dosing started at approximately 1pm in 30-second intervals per animal. All groups were dosed 30 minutes prior to glucose administration at a dose volume of 10ml/kg (the dose volume was calculated separately for each individual animal). Test compounds were administered at two or more of the following dosages: 0.1 mg/kg, 0.3 mg/kg, 1 mg/kg, 3 mg/kg, 10 mg/kg and 30 mg/kg.
Thirty minutes after the first dose (with test compound) animals were bled again for a second baseline, or T=0, and immediately dosed with glucose (20% solution; TEKNOVA, 250ml sterile bottle w/ catalogue number G0525) via a PO injection. The exact dose volume for glucose was also calculated separately for each individual animal.
Blood glucose was measured at 15, 30, 45, 60, and 90 minutes post-glucose administration via the snipped tail. If an animal reached a value of "HI", the upper limit of the glucometer (600mg/dl) was substituted as the blood glucose value and the study was analyzed as normal with no exclusions. If 50% or more of any treatment group reaches a "HI" value at least once, the study was considered invalid and repeated. Glucose values were typed into an EXCEL spreadsheet where they were used to calculate glucose AUC and delta AUC post-compound and post-glucose. The glucose excursion curves and the different versions of the AUC's were graphed in GraphPad Prism 5.
Note: All statistics completed in this study were completed using the statistical software package GraphPad Prism 5. Standard procedures for analyzing data sets from screening GPR120 compounds in DIO mouse OGTT's were as listed here below. In addition to the statistics that were run using GraphPad Prism 5, Microsoft Excel was used to calculate the percent changes in AUC from vehicle groups as detailed below.
Change from -30 to 0 BSLN Glucose, Raw Glucose AUC -30 to 90min, Delta Glucose AUC -30 to 90min, Raw Glucose AUC 0 to 90min, Delta Glucose AUC 0 to 90min were analyzed using Column Statistics Analysis, with mean values used to calculate % change from the vehicle mean group, as well as mean, SEM and / or % change from vehicle, where appropriate; and using One-Way ANOVA w/ a Tukey Post-Test (Comparing All Pairs of Columns) with each treatment group examined to see if it was statistically significant compared to vehicle (*= P<0.05, **= P<0.01, ***= P<0.001).

In the case of `Cc1c(CCC(=O)O)ccc(OCc2cccn2-c2ccc(Cl)cc2)c1C` [Compound 1, 3-(4-{[1-(4-Chlorophenyl)-1H-pyrrol-2-yl]methoxy}-2,3-dimethylphenyl)propanoic acid], the “GPR120 C57bl6 Mouse IPGTT Results” value ([1]; 30.0 mg/kg) is reported as “not different from vehicle”.

`COc1ccc(-n2ccc(C(F)(F)F)c2COc2ccc(CCCO)c(F)c2F)cc1` [Compound 27, 3-(2,3-Difluoro-4-{[1-(4-methoxyphenyl)-3-(trifluoromethyl)-1H-pyrrol-2-yl]methoxy}phenyl)propan-1-ol] was tested, and the “GPR120 C57bl6 Mouse IPGTT Results” value ([1]; 10.0 mg/kg) was -16.

In the case of `OCCCc1cc(F)c(OCc2c(C(F)(F)F)ccn2-c2ccc(Br)cc2)c(F)c1` [Compound 30, 3-(4-{[1-(4-Bromophenyl)-3-(trifluoromethyl)-1H-pyrrol-2-yl]methoxy}-3,5-difluorophenyl)propan-1-ol], the “C57bl6 Mouse IPGTT dose response” value ([1]; 1 mg/kg) is reported as 1%, the “C57bl6 Mouse IPGTT dose response” value ([1]; 3 mg/kg) is reported as -14% and the “C57bl6 Mouse IPGTT dose response” value ([1]; 10 mg/kg) is reported as -48%. For the same compound, the “GPR120 C57bl6 Mouse IPGTT Results” value ([1]; 10.0 mg/kg) was -53.

For `COc1ccc(-n2ccc(C(F)(F)F)c2COc2c(F)cc(CCCO)cc2F)cc1` [Compound 31, 3-(3,5-Difluoro-4-{[1-(4-methoxyphenyl)-3-(trifluoromethyl)-1H-pyrrol-2-yl]methoxy}phenyl)propan-1-ol], the “C57bl6 Mouse IPGTT dose response” value ([1]; 1 mg/kg) was 2%, the “C57bl6 Mouse IPGTT dose response” value ([1]; 3 mg/kg) was -39% and the “C57bl6 Mouse IPGTT dose response” value ([1]; 10 mg/kg) was -44%. The “GPR120 C57bl6 Mouse IPGTT Results” value ([1]; 10.0 mg/kg) was -43.

`CCc1ccc(-n2ccc(C(F)(F)F)c2COc2c(F)cc(CCCO)cc2F)cc1` [Compound 33, 3-(4-{[1-(4-Ethylphenyl)-3-(trifluoromethyl)-1H-pyrrol-2-yl]methoxy}-3,5-difluorophenyl)propan-1-ol] was tested, and the “GPR120 C57bl6 Mouse IPGTT Results” value ([1]; 10.0 mg/kg) was -26.

For `CCc1ccc(-n2ccc(C(F)(F)F)c2COc2ccc(CCC(=O)O)c(F)c2F)cc1` [Compound 34, 3-(4-{[1-(4-Ethylphenyl)-3-(trifluoromethyl)-1H-pyrrol-2-yl]methoxy}-2,3-difluorophenyl)propanoic acid], the “DIO Lowering Glucose AUC” value ([2]; 3 mg/kg) was -27% and the “DIO Lowering Glucose AUC” value ([2]; 10 mg/kg) was -50%.

`Cc1ccc(-n2ccc(C(F)(F)F)c2COc2c(F)cc(CCCO)cc2F)cc1` [Compound 37, 3-(3,5-Difluoro-4-{[1-(4-methylphenyl)-3-(trifluoromethyl)-1H-pyrrol-2-yl]methoxy}phenyl)propan-1-ol] was tested, and the “GPR120 C57bl6 Mouse IPGTT Results” value ([1]; 10.0 mg/kg) was -30.

For `Cc1ccc(-n2ccc(C(F)(F)F)c2COc2c(F)cc(CCC(=O)O)cc2F)cc1` [Compound 39, 3-(3,5-Difluoro-4-{[1-(4-methylphenyl)-3-(trifluoromethyl)-1H-pyrrol-2-yl]methoxy}phenyl)propanoic acid], the “DIO Lowering Glucose AUC” value ([2]; 3 mg/kg) was -59% and the “DIO Lowering Glucose AUC” value ([2]; 10 mg/kg) was -68%.

With `O=C(O)CCc1cc(F)c(OCc2c(C(F)(F)F)ccn2-c2ccc(Cl)cc2)c(F)c1` [Compound 70, 3-(4-{[1-(4-Chlorophenyl)-3-(trifluoromethyl)-1H-pyrrol-2-yl]methoxy}-3,5-difluorophenyl)propanoic acid] the “DIO Lowering Glucose AUC” value ([2]; 3 mg/kg) was -79%, the “DIO Lowering Glucose AUC” value ([2]; 10 mg/kg) was -82% and the “Lowering Glucose AUC” value ([2]; 0.1 mg/kg) was 9%. For the same compound, the “Lowering Glucose AUC” value ([2]; 0.3 mg/kg) was -8%, the “Lowering Glucose AUC” value ([2]; 1.0 mg/kg) was -54% and the “Lowering Glucose AUC” value ([2]; 3.0 mg/kg) was -73%.
